Assay: wn = mass fraction of the nth substance listed
Settings: 101 kPa, Liquid; for viscosity: Capillary tube (Ostwald / Ubbelohde) method; for speed of sound: Frequency=3 MHz, Linear variable-path acoustic interferometer; for mass density: Pycnometric method

O=C[C@@H](O)[C@@H](O)[C@H](O)[C@H](O)CO [D-mannose] + O
Settings | mass density, w1 = 0.025 [kg/m3] | mass density, w1 = 0.05 [kg/m3] | speed of sound, w1 = 0.025 [m/s] | speed of sound, w1 = 0.05 [m/s] | viscosity, w1 = 0.025 [mPa·s] | viscosity, w1 = 0.05 [mPa·s]
293.15 K | – | 1017.15 | 1495.7 | 1508.3 | 1.074 | 1.146
298.15 K | – | 1016.04 | 1506.6 | 1516.6 | 0.9514 | 1.007
303.15 K | 1005.29 | 1014.73 | 1516.9 | 1525.2 | 0.8479 | 0.8925
308.15 K | 1003.71 | 1013.21 | 1526.9 | 1534.1 | 0.7636 | 0.8017
313.15 K | 1001.93 | 1011.5 | 1535.2 | 1542.6 | 0.6922 | 0.7265
318.15 K | 999.95 | 1009.58 | 1543 | 1551 | 0.6347 | 0.6654

— the NIST ThermoML archive (doi:10.1016/j.jct.2016.03.012)
